Assays:
HX-62 = assay: In vitro cytotoxicity (SRB assay), human ovarian carcinoma line HX-62; type: cell-based; details: HX-62 cells, exposure 48 to 96 hours
Experimental: (§1) Monolayer cells were trypsinized and seeded in 96-well microtiter plates at a density of 1×10^4 cells/well in 200 μl of growth medium. Cells were incubated overnight and test compounds were added to triplicate wells at various concentrations for a total of 48 to 96 hours. For toxicity analysis after drug exposure, the cells were fixed with trichloroacetic acid and stained for cellular protein content by incubation for 30 minutes with 0.4% (wt/vol) sulphorhodamine B (SRB) dissolved in 1% acetic acid. The unbound dye was removed by 1% acetic acid washes, and the bound dye was extracted with 10 mM Tris buffer. The amount of dye in solution was quantified by absorbance at 564 nm.

SKOV-3 = assay: In vitro cytotoxicity (SRB assay), human ovarian carcinoma line SKOV-3; type: cell-based; details: SKOV-3 cells, exposure 48 to 96 hours
Experimental: as §1

41M = assay: In vitro cytotoxicity (SRB assay), human ovarian carcinoma line 41M; type: cell-based; details: 41M cells, exposure 48 to 96 hours
Experimental: as §1

41M^R = assay: In vitro cytotoxicity (SRB assay), human ovarian carcinoma line 41M^R; type: cell-based; details: 41M^R cells, exposure 48 to 96 hours
Experimental: as §1

CH1 = assay: In vitro cytotoxicity (SRB assay), human ovarian carcinoma line CH1; type: cell-based; details: CH1 cells, exposure 48 to 96 hours
Experimental: as §1

CH^R = assay: In vitro cytotoxicity (SRB assay), human ovarian carcinoma line CH^R; type: cell-based; details: CH^R cells, exposure 48 to 96 hours
Experimental: as §1

A2780 = assay: In vitro cytotoxicity (SRB assay), human ovarian carcinoma line A2780; type: cell-based; details: A2780 cells, exposure 48 to 96 hours
Experimental: as §1

A2780^R = assay: In vitro cytotoxicity (SRB assay), human ovarian carcinoma line A2780^R; type: cell-based; details: A2780^R cells, exposure 48 to 96 hours
Experimental: as §1

Adj/PC6 tumours = assay: In vivo test in mice having Adj/PC6 tumours (LD50, ED90, TI); details: for ED90 / LD50 / TI (ratio of LD50 to ED90): mice, Adj/PC6 tumours
Experimental: The compounds of the invention were then tested in vivo in mice having Adj/PC6 tumours. The Adj/PC6 testing was carried out as described by P M Goddard et al presented in Sixth NCI-EORTC Symposium on New Drugs in Cancer Therapy 1989, which is a development of the basic method described by T A Connors et al, Chem Biol Interact 5,415 (1972). The animals were sacrificed when moribund. The compounds were administered parenterally (ip) or orally (po), or in the case of the Example 2 compound, iv at doses of 2.5, 5, 10 and 20 mg/kg (4 animals per dose group).
In the testing, LD50 and ED90 values in mg/kg body weight were determined in the conventional manner. The therapeutic index (TI) was calculated as the ratio of LD50 to ED90, and the results are shown below.

[1] = i.v., doses 2.5, 5, 10 and 20 mg/kg

Row | SMILES | IC50 (HX-62) | IC50 (SKOV-3) | IC50 (41M) | IC50 (41M^R) | IC50 (CH1) | IC50 (CH^R) | IC50 (A2780) | IC50 (A2780^R) | ED90 (Adj/PC6 tumours; i.p.) | LD50 (Adj/PC6 tumours; i.p.) | TI (ratio of LD50 to ED90) (Adj/PC6 tumours; i.p.) | ED90 (Adj/PC6 tumours; [1]) | LD50 (Adj/PC6 tumours; [1]) | TI (ratio of LD50 to ED90) (Adj/PC6 tumours; [1]) | therapeutic index, oral route compared to parenteral administration (Adj/PC6 tumours; oral vs parenteral, in words) | ED90 (Adj/PC6 tumours; p.o.) | LD50 (Adj/PC6 tumours; p.o.) | TI (ratio of LD50 to ED90) (Adj/PC6 tumours; p.o.)
1 | CC(=O)[O][Pt]([OH])([Cl])[O]C(C)=O.CC(C)N.CC(C)N [Example 4, c,t,c-[PtCl(OH)(OAc)2 (i-C3 H7 NH2)2]] | 2100 nM | 1600 nM | 890 nM | 590 nM | 86 nM | 210 nM | 650 nM | 1900 nM | – | – | – | – | – | – | – | – | – | –
2 | CC(C)N.CC(C)N.C[O][Pt]([OH])([O]C(C)=O)[O]C(C)=O [Example 7, c,t,c-[Pt(OH)(OMe)(OAc)2 (i--C3 H7 NH2)2]] | 12500 nM | 6100 nM | 3100 nM | 2500 nM | 260 nM | – | – | – | – | – | – | – | – | – | – | – | – | –
3 | CC(=O)[O][Pt]([OH])([Cl])[O]C(C)=O.N.NC1CCCCC1 [Example 6, c,t,c-[PtCl(OH)(OAc)2 NH3 (c-C6 H11 NH2)]] | 3100 nM | 1150 nM | 240 nM | 440 nM | 22 nM | 82 nM | 310 nM | 930 nM | – | – | – | – | – | – | – | – | – | –
4 | CCCC(=O)[O][Pt]([Cl])([O]C)[O]C(=O)CCC.N.NC1CCCCC1 [Example 1, c,t,c-[PtCl(OMe)(O2 CC3 H7)2 NH3 (c-C6 H11 NH2)]] | 220 nM | 30 nM | 10 nM | 13 nM | 2 nM | – | – | – | 2.6 mg/kg | 17.5 mg/kg | 6.7 | – | – | – | – | – | – | –
5 | CC(C)N.CC(C)N.CCCCCC(=O)[O][Pt]([OH])([Cl])[O]C(=O)CCCCC [Example 3, c,t,c-[PtCl(OH)(O2 CC5 H11)2 (i-C3 H7 NH2)2]] | 50 nM | 4.6 nM | < 2.5 nM | < 2.5 nM | < 2.5 nM | < 2.5 nM | < 2.5 nM | 2.9 nM | – | – | – | – | – | – | – | – | – | –
6 | CC(=O)[O][Pt]([OH])([OH])[O]C(C)=O.N.NC1CCCCC1 [Example 2, c,t,c-[Pt(OH)2 (OAc)2 NH3 (c-C6 H11 NH2)]] | 37000 nM | 21000 nM | 6500 nM | 4300 nM | 740 nM | 1350 nM | 4200 nM | 3700 nM | 4.2 mg/kg | 17.5 mg/kg | 4.2 | < 2.5 mg/kg | 14 mg/kg | > 5.6 | greater therapeutic index | 42 mg/kg | 670 mg/kg | 16

From patent US5519155A, “Platinum complexes” (Johnson Matthey Public Limited Company, priority 1994, dated 1996)
